[invAb] = 3' inverted deoxyabasic cap; [amino-N] = 2'-deoxy-2'-amino nucleotide (N: the base); [I] = hypoxanthine (inosine); m = 2'-O-methyl; r = 2'-OH (RNA)
System: plus strand HCV RNA
Assay type: biochemical, Hepatitis C virus
Details: plus strand (+) HCV site, 50 mM Tris-Cl, pH 8.0, 40 mM Mg2+ at 37°, trace substrate, enzymatic nucleic acid concentration of 500 nM or greater

Substance | % Substrate Cleaved in 3 hours [%]
22719 (UGGAAGAUGAUGGCAUGCACUAUGCGCGACUGAGA; sugars from the 5' end mmmmmmmmrrrmmmmmrmmmmmmmmmrmmmmmmmm, [invAb] at 3' end, backbone not given here) [compound 22719] | 69.88
22720 (GGAGAGGUGAUGGCAUGCACUAUGCGCGAUAUACA; sugars from the 5' end mmmmmmmmrrrmmmmmrmmmmmmmmmrmmmmmmmm, [invAb] at 3' end, backbone not given here) [compound 22720] | 77.74
22721 (UCUAAGGUGAUGGCAUGCACUAUGCGCGACACGGU; sugars from the 5' end mmmmmmmmrrrmmmmmrmmmmmmmmmrmmmmmmmm, [invAb] at 3' end, backbone not given here) [compound 22721] | 47.37
22722 (ACCACCUUGAUGGCAUGCACUAUGCGCGACUCCAC; sugars from the 5' end mmmmmmmmrrrmmmmmrmmmmmmmmmrmmmmmmmm, [invAb] at 3' end, backbone not given here) [compound 22722] | 75.84
22723 (ACAGGUUUGAUGGCAUGCACUAUGCGCGAACUCGU; sugars from the 5' end mmmmmmmmrrrmmmmmrmmmmmmmmmrmmmmmmmm, [invAb] at 3' end, backbone not given here) [compound 22723] | 61.58
22748 (AGGUGAAGCCGAAAGGCGAGUGAGGUCUAGCUGAG; 2'-O-methyl at 1, 2, 3, 4, 5, 6, 7, 8, 9, 10, 11, 12, 13, 14, 15, 16, [amino-N] at 17, 27, [invAb] at 3' end, other sugars and backbone not given here) [compound 22748] | 80.28
22749 (GGAAAAGGCCGAAAGGCGAGUGAGGUCUAACAGGA; 2'-O-methyl at 1, 2, 3, 4, 5, 6, 7, 8, 9, 10, 11, 12, 13, 14, 15, 16, [amino-N] at 17, 27, [invAb] at 3' end, other sugars and backbone not given here) [compound 22749] | 90.80
22750 (AGAAGAAGCCGAAAGGCGAGUGAGGUCUACGAGGAN; 2'-O-methyl, 2'-amino and inverted abasic, amino positions listed inconsistently, further chemistry not given here) [compound 22750] | 80.64
22751 (GAGUUGAGCCGAAAGGCGAGUGAGGUCUUGGAGUG; 2'-O-methyl at 1, 2, 3, 4, 5, 6, 7, 8, 9, 10, 11, 12, 13, 14, 15, 16, [amino-N] at 17, 27, [invAb] at 3' end, other sugars and backbone not given here) [compound 22751] | 14.85
22775 (AAGAGGACUGAUGAGGCCGUUAGGCCGAANAUAGAG; ribozyme; 2'-O-methyl at 1, 2, 3, 4, 5, 6, 7, 15, 16, 17, 18, 19, 20, 21, 22, 23, 24, 25, 26, 31, 32, 33, 34, 35, 36, [I] at 30, [invAb] at 3' end, other sugars and backbone not given here) [compound 22775] | 87.74
22776 (GGUGAACCUGAUGAGGCCGUUAGGCCGAANCUGAGA; ribozyme; 2'-O-methyl at 1, 2, 3, 4, 5, 6, 7, 15, 16, 17, 18, 19, 20, 21, 22, 23, 24, 25, 26, 31, 32, 33, 34, 35, 36, [I] at 30, [invAb] at 3' end, other sugars and backbone not given here) [compound 22776] | 84.55
22777 (CGAGGAACUGAUGAGGCCGUUAGGCCGAANAGAGGA; ribozyme; 2'-O-methyl at 1, 2, 3, 4, 5, 6, 7, 15, 16, 17, 18, 19, 20, 21, 22, 23, 24, 25, 26, 31, 32, 33, 34, 35, 36, [I] at 30, [invAb] at 3' end, other sugars and backbone not given here) [compound 22777] | 90.12
22778 (UGAUGGACUGAUGAGGCCGUUAGGCCGAANCUGUGA; ribozyme; 2'-O-methyl at 1, 2, 3, 4, 5, 6, 7, 15, 16, 17, 18, 19, 20, 21, 22, 23, 24, 25, 26, 31, 32, 33, 34, 35, 36, [I] at 30, [invAb] at 3' end, other sugars and backbone not given here) [compound 22778] | 83.77
22779 (UGAGGAACUGAUGAGGCCGUUAGGCCGAANGUGGAG; ribozyme; 2'-O-methyl at 1, 2, 3, 4, 5, 6, 7, 15, 16, 17, 18, 19, 20, 21, 22, 23, 24, 25, 26, 31, 32, 33, 34, 35, 36, [I] at 30, [invAb] at 3' end, other sugars and backbone not given here) [compound 22779] | 82.22
22943 (GCUGAGACUGAUGAGGCCGUUAGGCCGAAACGAGGA; 2'-O-methyl at 1, 2, 3, 4, 5, 6, 7, 15, 16, 17, 18, 19, 20, 21, 22, 23, 24, 25, 26, 31, 32, 33, 34, 35, 36, [invAb] at 3' end, other sugars and backbone not given here) [compound 22943] | 89.67
22944 (UCCUGUUCUGAUGAGGCCGUUAGGCCGAAAUGUGCC; 2'-O-methyl at 1, 2, 3, 4, 5, 6, 7, 15, 16, 17, 18, 19, 20, 21, 22, 23, 24, 25, 26, 31, 32, 33, 34, 35, 36, [invAb] at 3' end, other sugars and backbone not given here) [compound 22944] | 90.33
22945 (GGAAGGACUGAUGAGGCCGUUAGGCCGAAAGGAUGC; 2'-O-methyl at 1, 2, 3, 4, 5, 6, 7, 15, 16, 17, 18, 19, 20, 21, 22, 23, 24, 25, 26, 31, 32, 33, 34, 35, 36, [invAb] at 3' end, other sugars and backbone not given here) [compound 22945] | 82.54
22946 (CUCCACGCUGAUGAGGCCGUUAGGCCGAAACUCCUC; 2'-O-methyl at 1, 2, 3, 4, 5, 6, 7, 15, 16, 17, 18, 19, 20, 21, 22, 23, 24, 25, 26, 31, 32, 33, 34, 35, 36, [invAb] at 3' end, other sugars and backbone not given here) [compound 22946] | 78.06
22947 (GGAGUGACUGAUGAGGCCGUUAGGCCGAAAAUGCGC; 2'-O-methyl at 1, 2, 3, 4, 5, 6, 7, 15, 16, 17, 18, 19, 20, 21, 22, 23, 24, 25, 26, 31, 32, 33, 34, 35, 36, [invAb] at 3' end, other sugars and backbone not given here) [compound 22947] | 81.88
22971 (AGGAAGAGGCTAGCTACAACGAAGAGAAAN; 3' inverted abasic cap (B); misc_feature (30)..(30): n stands for inverted deoxyabasic derivative; misc_feature (1)..(7): 2'-O-Methyl; misc_feature (23)..(29): 2'-O-Methyl) [compound 22971] | 92.11
22972 (UGAGAGAGGCTAGCTACAACGAGAGGAAGN; 3' inverted abasic cap (B); Description of Artificial Sequence: Nucleic Acid; misc_feature (30)..(30): "n" is an inverted deoxyabasic moiety; misc_feature (1)..(7): 2'-O-Methyl; misc_feature (23)..(29): 2'-O-Methyl) [compound 22972] | 86.38
22973 (AGGUGAAGGCTAGCTACAACGAAGCUGAGN; 3' inverted abasic cap (B); Description of Artificial Sequence: Nucleic Acid; misc_feature (30)..(30): n stands for inverted deoxyabasic derivative; misc_feature (1)..(7): 2'-O-Methyl; misc_feature (23)..(29): 2'-O-Methyl) [compound 22973] | 83.15
22974 (CUGGUGAGGCTAGCTACAACGAGGAGGCUN; 3' inverted abasic cap (B); misc_feature (30)..(30): n stands for inverted deoxyabasic derivative; misc_feature (1)..(7): 2'-O-Methyl; misc_feature (23)..(29): 2'-O-Methyl) [compound 22974] | 57.82
22975 (UGGUGUAGGCTAGCTACAACGAGCGUUGAN; 3' inverted abasic cap (B); Description of Artificial Sequence: Nucleic Acid; misc_feature (30)..(30): n stands for inverted deoxyabasic derivative; misc_feature (1)..(7): 2'-O-Methyl; misc_feature (23)..(29): 2'-O-Methyl) [compound 22975] | 75.77

Reference: US20040127446A1 (priority 1992, published 2004)
